This assay concerns the target T1, Drak2 (death-associated protein kinase-related apoptosis-inducing kinase-2) (Homo sapiens, UniProt O94768).
T1 construct: gene STK17B
T1 sequence (O94768 1-372): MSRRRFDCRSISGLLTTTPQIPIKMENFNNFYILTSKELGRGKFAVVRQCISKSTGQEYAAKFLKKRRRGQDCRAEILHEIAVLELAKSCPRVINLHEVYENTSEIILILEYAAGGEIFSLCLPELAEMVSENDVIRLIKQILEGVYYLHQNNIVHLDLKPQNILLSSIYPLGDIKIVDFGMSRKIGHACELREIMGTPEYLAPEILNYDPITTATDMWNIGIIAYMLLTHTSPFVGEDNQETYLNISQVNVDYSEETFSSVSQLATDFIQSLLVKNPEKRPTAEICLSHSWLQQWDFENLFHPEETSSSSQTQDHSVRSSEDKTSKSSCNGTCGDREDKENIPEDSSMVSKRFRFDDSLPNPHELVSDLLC
Description: biochemical. Details: ADP-Glo kinase assay, luminescence, residual Drak2 activity at 20 uM compound. As to conditions: read-out: % of control remaining. The protocol: ADP-Glo kits (Promega, Madison, WI; #V6903) were used for Drak2 inhibitor screening. Drak2 activity was measured and calculated from the amount of ADP generated from the enzyme reaction. The compounds were dissolved in DMSO and diluted to the indicated concentration for the screening assay. Drak2 and substrate ATP were diluted in 1X Buffer (HEPES 50 mM (pH 7.0), NaN3 0.02%, Orthovanadate 0.1 mM, 5 mM MgCl2, 0.01% (w/v) bovine serum albumin). The 5 µL kinase reaction was performed using 1X kinase buffer that contained 1 μL of compound, 2 μL of Drak2 (160 nM) and 2 μL of substrate ATP (20 μM), and incubated for 2 h at room temperature. Then, 2.5 μL of ADP-Glo™ Reagent was added to each reaction and incubated for 2 h at room temperature to deplete the remaining ATP. Finally, 5 μL of Kinase Detection Reagent was added to each reaction to convert ADP to ATP via the luciferase reaction, which was detected using an EnVision multilabel plate reader. 22b was used as a positive control in the assay. Our previous work validated that Drak2 inhibitors can prevent pancreatic β cells from undergoing lipotoxicity-induced cell apoptosis. Therefore, we established a kinase activity detection assay in vitro using the ADP-Glo^TM Kinase Assay kit (Promega, Madison, WI, USA) and screened the Natural Product and Derivatives Focus Library to identify small molecules that can inhibit Drak2 activity. […]

As for `O=c1cc(-c2ccc(O)c(O)c2)oc2cc(O)cc(O)c12` [luteolin], the remaining activity at 20 µM was determined as 7.74 ± 1.75%.

Values taken from publication PMC10385282, “Luteolin Protects Pancreatic β Cells against Apoptosis through Regulation of Autophagy and ROS Clearance” (Pharmaceuticals, 2023).
